Several values for one entry are separate records, joined by “and”; a condition that tells them apart may be missing. Equal entries are not always repeated.
Experiments:
[1] = test system: A431 epidermoid carcinoma xenografts; assay: Tumor growth inhibition, subcutaneous A431 xenografts; assay type: in vivo, athymic nude mice; conditions: for average tumor size as % of the control tumors: intravenous, twenty-seven days following onset of therapy
Protocol: (§1) Subcutaneous tumors of N87, LOVO, A431/Le^y, LS174T and L2987 were grown in athymic nude mice (Charles River, Wilmington, Mass.). Two-month-old female mice were injected with respectively 5×10^6 N87, LOVO, A431/Le^y or LS174T cells per mouse. L2987 cells were injected in male nude mice that were between 7 and 8 weeks old. To grow tumors, N87 cells had to be mixed (1:1, vol/vol) with […]® (Collaborative Biomedical Products, Belford, Mass.) prior to injection. Two perpendicular diameters of the tumor were measured by means of calipers at time intervals specified in the result section. The tumor volume was calculated according to the formula of Attia&Weiss: A^2×B×0.4. A and B are symbols for the smaller and the larger tumor diameter, respectively.
[…] Mice with xenografts of approximately 80 mm^3 were selected prior to treatment. The amounts of CalichDMH or conjugate given are expressed in calicheamicn equivalents.
Both T and C are determined at the same day following initiation of treatment.

[2] = test system: HT29 xenografts; assay: Tumor growth inhibition, subcutaneous HT29 xenografts; assay type: in vivo, athymic nude mice; conditions: 4.00 μg per dose, Q4D×3, 33 days after first dose
[3] = test system: MDAMB435/5T4 xenografts; assay: Tumor growth inhibition, subcutaneous MDAMB435/5T4 xenografts; assay type: in vivo, athymic nude mice
[4] = test system: N87 xenografts; assay: Tumor growth inhibition, subcutaneous N87 xenografts; assay type: in vivo, athymic nude mice
Protocol: as §1, with “respectively. The treatment schedules, dose and number of mice per group are specified in the result section and in the figure legends.” for “respectively.”
(§2) As shown in Table 2 (tumor volume reduction of CD33-tumor xenografts following treatment (T) with hp67.6-AcBut-CalichDMH and expressed as a percentage of controls treated with vehicle (T/C %)), hp67.6-AcBut-CalichDMH inhibited tumor growth of human tumor xenografts with diverse histiotypic origin. […] This value is the average tumor volume of a group of mice that were treated with hp67.6-AcBut-CalichDMH (T) expressed as a percentage of the average tumor volume of a control group (C). Both T and C are determined at the same day following initiation of treatment. The T/C-values in table II were derived from 27 independent experiments and were determined between 17 and 34 days after injection of the first dose of hp67.6-AcBut-CalichDMH. […] Significant inhibition was also observed when lower amounts of the conjugate were administered.

[5] = test system: PC14PE6 xenografts; assay: Tumor growth inhibition, subcutaneous PC14PE6 xenografts; assay type: in vivo, athymic nude mice
[6] = test system: A431/Le^Y xenografts; assay: Tumor growth inhibition, subcutaneous A431/LeY xenografts; assay type: in vivo, athymic nude mice
Protocol: as §1, with “respectively. […]” for “respectively.”
As shown in Table 2 (tumor volume reduction of CD33-tumor xenografts following treatment (T) with hp67.6-AcBut-CalichDMH and expressed as a percentage of controls treated with vehicle (T/C %)), hp67.6-AcBut-CalichDMH inhibited tumor growth of human tumor xenografts with diverse histiotypic origin. […] This value is the average tumor volume of a group of mice that were treated with hp67.6-AcBut-CalichDMH (T) expressed as a percentage of the average tumor volume of a control group (C). Both T and C are determined at the same day following initiation of treatment. […]

[7] = test system: LOVO xenografts; assay: Tumor growth inhibition, subcutaneous LOVO xenografts; assay type: in vivo, athymic nude mice; conditions: for T/C (%): LOVO, 4.00 μg per dose, Q4D×3
Protocol: as §1, with “respectively. The treatment schedules, dose and number of mice per group are specified in the result section and in the figure legends.” for “respectively.”
as §2

[8] = test system: L2987 xenografts; assay: Tumor growth inhibition, subcutaneous L2987 xenografts; assay type: in vivo, athymic nude mice
Protocol: as §1, with “respectively. The treatment schedules, dose and number of mice per group are specified in the result section and in the figure legends.” for “respectively.”
as §2

[9] = In vivo distribution of 125I-labeled conjugate in A431 tumor-bearing mice; parameters: species or system female nude mice
Protocol: Gemtuzumab ozogamicin was labeled with ^125I using the Bolton-Hunter reagent (NEN, Boston, Mass.). A group of 30 tumor-bearing female nude mice were injected in the lateral tail vein with ^125I-labeled conjugate 20 μCi/[…]. The tumor weight at the time of injection was approximately 1 g. Groups of 5 mice were killed by CO2 inhalation at 2, 6, 24, 48, 72 and 96 h following the injection. The amount of γ radiation in the tissues as specified in FIG. 2 was determined at these time points. Biodistribution of the conjugate was expressed as a percentage of the injected dose per gram tissue (% ID/g) or as a percentage of the blood level at a given time point (% Blood). Steadily increasing concentrations of hp67.6-AcBut-CalichDMH were exclusively observed in tumor tissue. The doubling time of accumulation is 150 h for A431 tumors.
The kinetics of hp67.6-AcBut-CalichDMH in various mouse tissues and in CD33-negative A431-tumor xenografted tumor were compared. Following injection of 200 µg (20 μCi) ^125I labeled conjugate, the amount of radioactive label was measured in various tissues at 2, 6, 24, 48, 72 and 96 h (FIG. 2). The amount of radioactive material was expressed relative to the amount present in whole blood at the time of measurement (% Blood, Y1 axes in FIG. 2). Percent blood (% Blood) is given by the formula, 100×Bq per gram tissue/Bq per gram blood. In addition, the amount of radioactive material was also expressed relative to total amount of conjugate given (% ID/g, Y2 axes in FIG. 2). Only a marginal amount of 125I labeled conjugate is retained in the brain. […] The % Blood was on average 3.5%.

[10] = test system: KB 8.5 xenografts; assay: Tumor growth inhibition, subcutaneous KB 8.5 xenografts; assay type: in vivo, athymic nude mice; conditions: 4.00 μg per dose, Q4D×3, 22 days after first dose
[11] = test system: PC3MM2 xenografts; assay: Tumor growth inhibition, subcutaneous PC3MM2 xenografts; assay type: in vivo, athymic nude mice; conditions: 4.00 μg per dose, Q4D×3, 29 days after first dose
[12] = test system: LNCaP xenografts; assay: Tumor growth inhibition, subcutaneous LNCaP xenografts; assay type: in vivo, athymic nude mice
[13] = intraperitoneally Q4D×3, equivalent or higher doses than hp67.6-AcBut-CalichDMH (FIGS. 1B and 1C)
[14] = intravenous administration, same dose, frequency and interval (Q4D×3)
[15] = 2.00 μg per dose, 29 days after first dose
[16] = 4.00 μg per dose, Q4D×3, 29 days after first dose
[17] = 1.00 μg per dose, 28 days after first dose
[18] = 2.00 μg per dose, 28 days after first dose
[19] = 2.00 μg per dose, 30 days after first dose
[20] = 4.00 μg per dose, Q4D×3, 28 days after first dose
[21] = 4.00 μg per dose, Q4D×3, 30 days after first dose

For CCN(C(C)=O)[C@H]1CO[C@@H](O[C@H]2[C@H](O[C@H]3C#C/C=C\C#C[C@]4(O)CC(=O)C(NC(=O)OC)=C3/C4=C\CSSC(C)(C)CC(=O)NN)O[C@H](C)[C@@H](NO[C@H]3C[C@H](O)[C@H](SC(=O)c4c(C)c(I)c(O[C@@H]5O[C@@H](C)[C@H](O)[C@@H](OC)[C@H]5O)c(OC)c4OC)[C@@H](C)O3)[C@@H]2O)C[C@@H]1OC [CalichDMH, N-acetyl-γ-calicheamicin dimethyl hydrazide], the “tumor growth inhibition of A431 xenografts” value (“tumor growth inhibition” below) [1, 13] was “did not inhibit tumor growth” and the “tumor growth inhibition” value [1, 14] was “did not yield significant tumor growth inhibition”.
For “hp67.6-AcBut-CalichDMH: antibody against CD33 (hp67.6) bound to N-acetyl gamma calicheamicin dimethyl hydrazide by the acid labile AcBut linker”, the “T/C (%)” value [2] was 36%, the “T/C (%)” value [3, 15] was 45% and the “T/C (%)” value [3, 16] was 32%. The “T/C (%)” value ([3]; 4.00 μg per dose, Q4D×3, 34 days after first dose) was 30%, the “T/C (%)” value [4, 17] was 55% and the “T/C (%)” value [4, 18] was 41%. The “T/C (%)” value [4, 19] was 54%, the “T/C (%)” value ([4]; 4.00 μg per dose, Q4D×3, 27 days after first dose) was 19% and the “T/C (%)” value [4, 20] was 60%. For the same compound, the “T/C (%)” value [4, 21] was 48%, the “T/C (%)” value ([4]; 4.00 μg per dose, Q4D×3, 31 days after first dose) was 39% and the “T/C (%)” value ([4]; 4.00 μg per dose, Q4D×3, 33 days after first dose) was 39% and 42%. The “T/C (%)” value ([5]; 1.00 μg per dose, 29 days after first dose) was 52%, the “T/C (%)” value ([5]; 2.00 μg per dose, 17 days after first dose) was 59% and the “T/C (%)” value [5, 15] was 42%. The “T/C (%)” value ([5]; 4.00 μg per dose, Q4D×3, 17 days after first dose) was 27%, the “T/C (%)” value ([5]; 4.00 μg per dose, Q4D×3, 22 days after first dose) was 15% and the “T/C (%)” value [5, 16] was 14%. For the same compound, the “T/C (%)” value [6, 15] was 37%, the “T/C (%)” value [6, 16] was under 1% and the “growth of A431 xenografts” value ([1]; 3 doses of 4 μg, intraperitoneally Q4D×3, up to 27 days following treatment) was “significantly (p=0.03) inhibited”. For the same compound, the “T/C (%)” value ([1]; A431, 1.00 μg per dose, 27 days after first dose) was 146%, the “T/C (%)” value ([1]; A431, 2.00 μg per dose, 27 days after first dose) was 72% and the “time xenografts remained significantly (p=0.004) smaller than the controls” value ([1]; A431, 2 μg/dose, intraperitoneally Q4D×3 (FIG. 1A)) was 21 days. The “T/C (%)” value ([1]; A431, 4.00 μg per dose, Q4D×3, 27 days after first dose) was 21% and 35%, the “T/C (%)” value ([1]; A431, 4.00 μg per dose, Q4D×3, 28 days after first dose) was 12% and the “average tumor size as % of the control tumors” value ([1]; A431, 2 μg Q4D×3) was 23%. For the same compound, the “average tumor size as % of the control tumors” value ([1]; A431, 4 μg Q4D×3) was 11%, the “tumor growth inhibition” value [1, 14] was “Significant growth inhibition” and the “T/Cmin value (minimum T/C-value observed during an experiment)” value ([7]; LOVO colon carcinoma, 4 μg CalichDMH per mouse, intraperitoneally Q4D×3 (FIG. 5)) was “exceptionally high”. For the same compound, the “T/C (%)” value ([7]; 25 days after first dose) was 80%, the “T/C (%)” value ([7]; 29 days after first dose) was 47% and 76% and the “T/C (%)” value ([8]; 0.75 μg per dose, 21 days after first dose) was 33%. The “T/C (%)” value ([8]; 1.50 μg per dose, 21 days after first dose) was 77%, the “T/C (%)” value [8, 19] was 5% and the “T/C (%)” value ([8]; 3.00 μg per dose, 21 days after first dose) was 5%. For the same compound, the “T/C (%)” value [8, 21] was 1%, the “T/C (%)” value ([8]; 4.00 μg per dose, Q4D×3, 35 days after first dose) was 1% and the “% ID/g value in function of time, tumor tissue” value ([9]; A431 tumor tissue, 2 to 96 h) was “steady increase”. For the same compound, the “doubling time of accumulation in tumor” value ([9]; A431 tumors, 125I-labeled conjugate, lateral tail vein) was 150 h, the “% Blood (100×Bq per gram tissue/Bq per gram blood), brain, on average” value ([9]; brain, within 96 hours, 125I-labeled conjugate) was 3.5% and the “time of highest % Blood-value” ([9]; heart, intestine and spleen, after injection, then steadily decreased) was 2 h. The “time of peak of the % Blood-value” ([9]; liver and striated muscle) was 48 h, the “% ID/g in function of time, all the other tissues examined” value ([9]; normal tissues, 2 to 96 h) was “decreased in function of time” and the “time after which % Blood-value reached a plateau” value ([9]; skin) was 24 h. For the same compound, the “T/C (%)” value [10] was 27%, the “T/C (%)” value [11] was 33% and the “T/C (%)” value ([12]; 0.50 μg per dose, 28 days after first dose) was 102%. The “T/C (%)” value [12, 17] was 59%, the “T/C (%)” value [12, 18] was 30% and the “T/C (%)” value [12, 15] was 34%. For the same compound, the “T/C (%)” value [12, 20] was 24% and the “T/C (%)” value [12, 16] was 7%.
For “hp67.6-Amide-CalichDMA: hp67.6 linked to CalichDMA with the acid stabile Amide (4-mercapto-4-methyl-pentanoic acid) linker”, the “tumor growth inhibition” value [1, 13] was “did not inhibit tumor growth” and the “tumor growth inhibition” value [1, 14] was “did not yield significant tumor growth inhibition”.
